In US9290451B2 (Hoffmann-La Roche Inc., priority 2011, dated 2016) one finds EC50 data, which are given here for 29 molecules.

One assay has as its target human CB1 receptors (Homo sapiens (Human), UniProt P21554). The assay is described as follows: cAMP assay, CHO cells expressing human CB1 receptors. Format: cell-based. The following applies: CHO cells expressing human CB1, cAMP; read-out: human CB1 EC50. The procedure, abridged:
(§1)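 In this cellular cAMP test, IBMX (1 mM) blocked phosphodiesterase during a 30-min, 30 °C compound exposure. Accumulated cAMP was measured by a lysis-based TR-FRET kit and interpolated from a standard curve to give EC50.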
On the technique in general: Cyclic AMP is a second messenger, typically raised through Gs and lowered through Gi signalling.

For another assay, the target named is human CB2 receptors (Homo sapiens (Human), UniProt P34972). The experiment in a line: cAMP assay, CHO cells expressing human CB2 receptors. The class given is cell-based. The following applies: CHO cells expressing human CB2, cAMP; read-out: human CB2 EC50. In outline:
as §1

Chain of human CB1 receptors (P21554 whole entry): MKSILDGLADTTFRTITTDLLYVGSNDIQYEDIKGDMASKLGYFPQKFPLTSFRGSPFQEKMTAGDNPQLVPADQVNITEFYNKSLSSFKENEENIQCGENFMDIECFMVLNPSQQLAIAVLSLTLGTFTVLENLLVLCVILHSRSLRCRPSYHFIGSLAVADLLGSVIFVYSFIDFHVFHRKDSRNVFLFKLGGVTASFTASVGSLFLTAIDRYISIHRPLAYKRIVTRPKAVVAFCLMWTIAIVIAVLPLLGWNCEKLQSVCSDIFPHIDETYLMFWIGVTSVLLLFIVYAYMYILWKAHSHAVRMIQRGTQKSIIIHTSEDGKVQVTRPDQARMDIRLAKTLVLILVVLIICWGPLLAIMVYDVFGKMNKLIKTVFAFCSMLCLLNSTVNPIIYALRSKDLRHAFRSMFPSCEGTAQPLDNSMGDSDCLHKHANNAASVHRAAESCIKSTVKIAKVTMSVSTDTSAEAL
Chain of human CB2 receptors (P34972 whole entry): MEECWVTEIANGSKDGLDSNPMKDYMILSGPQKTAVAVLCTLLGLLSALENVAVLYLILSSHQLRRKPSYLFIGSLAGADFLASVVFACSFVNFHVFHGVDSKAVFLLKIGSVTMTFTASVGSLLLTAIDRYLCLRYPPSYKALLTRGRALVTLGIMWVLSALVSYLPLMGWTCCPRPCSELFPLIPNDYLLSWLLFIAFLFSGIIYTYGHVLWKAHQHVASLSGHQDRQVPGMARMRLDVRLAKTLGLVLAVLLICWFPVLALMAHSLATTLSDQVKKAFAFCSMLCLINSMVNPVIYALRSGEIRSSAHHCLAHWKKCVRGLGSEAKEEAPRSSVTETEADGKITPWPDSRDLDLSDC

Broadly, the EC50 is the concentration at which the effect is half-maximal. As to `CNC(=O)[C@H](CC(C)(C)C)NC(=O)c1ccc(C2CC2)c(OCC2CCOCC2)n1` [Example 196, (S)-5-Cyclopropyl-N-(4,4-dimethyl-1-(methylamino)-1-oxopentan-2-yl)-6-((tetrahydro-2H-pyran-4-yl)methoxy)picolinamide], the EC50 is greater than 10000 nM at human CB1 receptors and 10.3 nM at human CB2 receptors.

`Cc1nc([C@H](NC(=O)c2ccc(C3CC3)c(OCC3CC3)n2)C2CC2)no1` [Example 197, (−)-5-Cyclopropyl-6-cyclopropylmethoxy-pyridine-2-carboxylic acid [cyclopropyl-(5-methyl-[1,2,4]oxadiazol-3-yl)-methyl]-amide]: the half-maximal effective concentration (EC50) at human CB1 receptors was greater than 10000 nM; on human CB2 receptors it was 33.2 nM.

Consider `Cc1nc([C@@H](NC(=O)c2ccc(C3CC3)c(OCC3CC3)n2)C2CC2)no1` [Example 198, (+)-5-Cyclopropyl-6-cyclopropylmethoxy-pyridine-2-carboxylic acid [cyclopropyl-(5-methyl-[1,2,4]oxadiazol-3-yl)-methyl]-amide], for which the 50% effective concentration (EC50) on human CB1 receptors was greater than 10000 nM; at human CB2 receptors, 6.8 nM.

Regarding `Cc1nc(C(C)(C)NC(=O)c2ccc(C3CC3)c(OCc3ccccn3)n2)no1` [Example 199, 5-Cyclopropyl-N-(2-(5-methyl-1,2,4-oxadiazol-3-yl)propan-2-yl)-6-(pyridin-2-ylmethoxy)picolinamide], the EC50 was greater than 10000 nM on human CB1 receptors and 151 nM on human CB2 receptors.

As to `CC(C)C[C@H](NC(=O)c1ccc(C2CC2)c(OCc2ccccn2)n1)C(N)=O` [Example 200, (S)-N-(1-Amino-4-methyl-1-oxopentan-2-yl)-5-cyclopropyl-6-(pyridin-2-ylmethoxy)picolinamide], the concentration for a half-maximal effect (EC50) at human CB1 receptors was greater than 10000 nM; on human CB2 receptors, 23.3 nM.

On to `CNC(=O)[C@@H](NC(=O)c1ccc(C2CC2)c(OCc2ccccn2)n1)C(C)(C)C` [Example 201, (S)-5-Cyclopropyl-N-(3,3-dimethyl-1-(methylamino)-1-oxobutan-2-yl)-6-(pyridin-2-ylmethoxy)picolinamide], for which the concentration giving a half-maximal response (EC50) was greater than 10000 nM at human CB1 receptors and 26.7 nM at human CB2 receptors.

Turning to `Cc1nc(C(C)(C)NC(=O)c2ccc(C3CC3)c(OCC3CCOCC3)n2)no1` [Example 202, 5-Cyclopropyl-N-(2-(5-methyl-1,2,4-oxadiazol-3-yl)propan-2-yl)-6-((tetrahydro-2H-pyran-4-yl)methoxy)picolinamide], the values for the concentration giving a half-maximal response (EC50) at human CB1 receptors and on human CB2 receptors were 615 nM and 23.6 nM, respectively.

Consider `CNC(=O)[C@H](CC(C)C)NC(=O)c1ccc(C2CC2)c(OCC2CCOCC2)n1` [Example 203, (S)-5-Cyclopropyl-N-(4-methyl-1-(methylamino)-1-oxopentan-2-yl)-6-((tetrahydro-2H-pyran-4-yl)methoxy)picolinamide], for which the figures for the EC50 on human CB1 receptors and at human CB2 receptors were 74.9 nM and 2.7 nM, respectively.

As for `CNC(=O)[C@@H](NC(=O)c1cccc(-c2ccccc2)n1)C(C)(C)C` [Example 204, (S)-N-(3,3-Dimethyl-1-(methylamino)-1-oxobutan-2-yl)-6-phenylpicolinamide], the results for the EC50 on human CB1 receptors and at human CB2 receptors were 737 nM and 13.2 nM, respectively.

For the molecule `CNC(=O)[C@H](CC(C)C)NC(=O)c1cccc(-c2ccccc2)n1` [Example 205, (S)-N-(4-Methyl-1-(methylamino)-1-oxopentan-2-yl)-6-phenylpicolinamide], the results for the EC50 at human CB1 receptors and on human CB2 receptors were greater than 10000 nM and 57.8 nM, respectively.

As for `CNC(=O)[C@@H](NC(=O)c1ccc(N2CC(F)(F)C2)c(OCC2CCCO2)n1)C(C)(C)C` (stereo partly drawn) [Example 206, 5-(3,3-Difluoroazetidin-1-yl)-N-((S)-3,3-dimethyl-1-(methylamino)-1-oxobutan-2-yl)-6-((tetrahydrofuran-2-yl)methoxy)picolinamide], the half-maximal effective concentration (EC50) was greater than 10000 nM on human CB1 receptors and 25 nM on human CB2 receptors.

`CCC(CC)(NC(=O)c1ccc(N2CC(F)(F)C2)c(OCC2CC2)n1)C(=O)O` [Example 207, 2-(6-(Cyclopropylmethoxy)-5-(3,3-difluoroazetidin-1-yl)picolinamido)-2-ethylbutanoic acid]: the EC50 on human CB1 receptors is greater than 10000 nM; on human CB2 receptors, 14.4 nM.

For `CNC(=O)[C@@H](NC(=O)c1ccc(N2CC(F)(F)C2)c(OCC2CC2)n1)C(C)(C)C` [Example 208, (S)-6-(Cyclopropylmethoxy)-5-(3,3-difluoroazetidin-1-yl)-N-(3,3-dimethyl-1-(methylamino)-1-oxobutan-2-yl)picolinamide], the EC50 on human CB1 receptors was greater than 10000 nM; on human CB2 receptors it was 8.9 nM.

Consider `CNC(=O)[C@H](CC(C)(C)C)NC(=O)c1ccc(N2CC(F)(F)C2)c(OCC2CC2)n1` [Example 209, (S)-6-(Cyclopropylmethoxy)-5-(3,3-difluoroazetidin-1-yl)-N-(4,4-dimethyl-1-(methylamino)-1-oxopentan-2-yl)picolinamide], for which the concentration giving a half-maximal response (EC50) at human CB1 receptors was greater than 10000 nM; on human CB2 receptors it was 2.5 nM.

On to `CNC(=O)[C@H](CC(C)C)NC(=O)c1cccc(-c2cccc(F)c2)n1` [Example 210, (S)-6-(3-Fluorophenyl)-N-(4-methyl-1-(methylamino)-1-oxopentan-2-yl)picolinamide], for which the values for the EC50 at human CB1 receptors and on human CB2 receptors were greater than 10000 nM and 62 nM, respectively.

As to `CNC(=O)[C@H](CC(C)C)NC(=O)c1cccc(-c2cccc(C(F)(F)F)c2)n1` [Example 211, (S)-N-(4-Methyl-1-(methylamino)-1-oxopentan-2-yl)-6-(3-(trifluoromethyl)phenyl)picolinamide], the EC50 on human CB1 receptors was greater than 10000 nM; on human CB2 receptors, 57.1 nM.

On to `CNC(=O)[C@H](CC(C)C)NC(=O)c1cccc(-c2ccc(F)c(Cl)c2)n1` [Example 212, (S)-6-(3-Chloro-4-fluorophenyl)-N-(4-methyl-1-(methylamino)-1-oxopentan-2-yl)picolinamide], for which the half-maximal effective concentration (EC50) is greater than 10000 nM at human CB1 receptors and 13.4 nM on human CB2 receptors.

As for `CNC(=O)[C@@H](NC(=O)c1cccc(-c2cccc(F)c2)n1)C(C)(C)C` [Example 213, (S)-N-(3,3-Dimethyl-1-(methylamino)-1-oxobutan-2-yl)-6-(3-fluorophenyl)picolinamide], the EC50 on human CB1 receptors turned out to be 361 nM; at human CB2 receptors, 12.8 nM.

Take `CNC(=O)[C@@H](NC(=O)c1cccc(-c2cccc(C(F)(F)F)c2)n1)C(C)(C)C` [Example 214, (S)-N-(3,3-Dimethyl-1-(methylamino)-1-oxobutan-2-yl)-6-(3-(trifluoromethyl)phenyl)-picolinamide]: the concentration giving a half-maximal response (EC50) on human CB1 receptors stood at 1630 nM; at human CB2 receptors, 53.7 nM.

As to `CNC(=O)[C@@H](NC(=O)c1cccc(-c2cccc(OC)c2)n1)C(C)(C)C` [Example 215, (S)-N-(3,3-Dimethyl-1-(methylamino)-1-oxobutan-2-yl)-6-(3-methoxyphenyl) picolinamide], the EC50 at human CB1 receptors was greater than 10000 nM; on human CB2 receptors, 125 nM.

For `CNC(=O)[C@@H](NC(=O)c1cccc(-c2ccc(F)c(Cl)c2)n1)C(C)(C)C` [Example 216, (S)-6-(3-Chloro-4-fluorophenyl)-N-(3,3-dimethyl-1-(methylamino)-1-oxobutan-2-yl)picolinamide], the EC50 on human CB1 receptors was 116 nM; at human CB2 receptors it was 2.7 nM.

On to `O=C(N[C@@H](c1cccnc1)C(F)(F)F)c1ccc(C2CC2)c(OCC2CC2)n1` [Example 217, (S)-5-Cyclopropyl-6-(cyclopropylmethoxy)-N-(2,2,2-trifluoro-1-(pyridin-3-yl)ethyl)-picolinamide], for which the concentration for a half-maximal effect (EC50) on human CB1 receptors is greater than 10000 nM; on human CB2 receptors it was 41.1 nM.

`O=C(N[C@H](c1cccnc1)C(F)(F)F)c1ccc(C2CC2)c(OCC2CC2)n1` [Example 218, (R)-5-Cyclopropyl-6-(cyclopropylmethoxy)-N-(2,2,2-trifluoro-1-(pyridin-3-yl)ethyl)-picolinamide]: the EC50 is greater than 10000 nM at human CB1 receptors and 24.1 nM at human CB2 receptors.

In the case of `Cc1nc(C(NC(=O)c2ccc(C3CC3)c(OCC3CCOCC3)n2)C2CC2)no1` (stereo not shown) [Example 219, 5-Cyclopropyl-6-(tetrahydro-pyran-4-ylmethoxy)-pyridine-2-carboxylic acid [cyclopropyl-(5-methyl-[1,2,4]oxadiazol-3-yl)-methyl]-amide], the concentration for a half-maximal effect (EC50) on human CB1 receptors turned out to be 2140 nM; on human CB2 receptors, 10.8 nM.

For `CCC(CC)(NC(=O)c1ccc(N(CC(F)(F)F)CC(F)(F)F)c(OCC2CC2)n1)C(=O)OC` [Example 220, 2-({5-[Bis-(2,2,2-trifluoro-ethyl)-amino]-6-cyclopropylmethoxy-pyridine-2-carbonyl}-amino)-2-ethyl-butyric acid methyl ester], the results for the concentration giving a half-maximal response (EC50) on human CB1 receptors and at human CB2 receptors were 129 nM and 1.6 nM, respectively.

Consider `Cc1nc(C(NC(=O)c2ccc(N3CC(F)(F)C3)c(OCC3CC3)n2)C2CC2)no1` (stereo not shown) [Example 221, 6-Cyclopropylmethoxy-5-(3,3-difluoro-azetidin-1-yl)-pyridine-2-carboxylic acid [cyclopropyl-(5-methyl-[1,2,4]oxadiazol-3-yl)-methyl]-amide], for which the EC50 came to 10000 nM at human CB1 receptors and 12.8 nM on human CB2 receptors.

Regarding `CN(C)C(=O)[C@H](CC1CC1)NC(=O)c1ccc(C2CC2)c(OCC2CC2)n1` [Example 222, 5-Cyclopropyl-6-cyclopropylmethoxy-pyridine-2-carboxylic acid ((S)-2-cyclopropyl-1-dimethylcarbamoyl-ethyl)-amide], the EC50 is greater than 10000 nM on human CB1 receptors and 3.2 nM on human CB2 receptors.

For `O=C(NC(c1ccccn1)C(F)(F)F)c1ccc(C2CC2)c(OCC2CCOCC2)n1` (stereo not shown) [Example 223, 5-Cyclopropyl-6-(tetrahydro-pyran-4-ylmethoxy)-pyridine-2-carboxylic acid (2,2,2-trifluoro-1-pyridin-2-yl-ethyl)-amide], the 50% effective concentration (EC50) worked out at 655 nM at human CB1 receptors and 10.9 nM on human CB2 receptors.

For the molecule `O=C(NC(c1ccccn1)C(F)(F)F)c1ccc(N2CC(F)(F)C2)c(OCC2CC2)n1` (stereo not shown) [Example 224, 6-Cyclopropylmethoxy-5-(3,3-difluoro-azetidin-1-yl)-pyridine-2-carboxylic acid (2,2,2-trifluoro-1-pyridin-2-yl-ethyl)-amide], the 50% effective concentration (EC50) at human CB1 receptors turned out to be 648 nM; at human CB2 receptors it was 22.2 nM.
